According to patent US7618958B2, “Stereospecific anxiolytic and anticonvulsant agents with reduced muscle-relaxant, sedative-hypnotic and ataxic effects” (WISYS Technology Foundation, Inc., priority 2004, dated 2009):

Key:
α2β3γ2 GABAA receptors = target: T1, α2β3γ2 GABAA receptors (Rattus norvegicus, UniProt P18508+P23576); test: Two-electrode voltage clamp in Xenopus oocytes, α2β3γ2; assay type: cell-based; conditions: FIG. 1, Xenopus oocytes
T1 construct: expressed in transfected cells; host or cells: Xenopus laevis oocytes injected with cRNA
Method: (§1) 1. Effects of SH-053-S—CH3 8 on GABA(A) receptors were tested by two-electrode voltage clamp experiments in cRNA injected Xenopus oocytes that functionally expressed several subtype combinations of GABAA receptors. […] This oocyte profile is indicative of an anxiolytic agent devoid of sedative, ataxic and anterograde amnestic side effects.
(§2) The methods were based on those published previously. See Li, X., et al., (2003) J. Med. Chem. 46: 5567-5570.
(§3) Cloning of GABAA receptor subunits α1, β3 and γ2 into pCDM8 expression vectors (Invitrogen, CA) has been described elsewhere ([…]). GABAA receptor subunit α4 was cloned in an analogous way. cDNAs for subunits α2, α3 and α5 were gifts from P. Malherbe and were subcloned into pCI-vector (Li, et al., 2003). cDNA for subunit α6 was a gift from P. Seeburg and was subcloned into the vector pGEM-3Z (Promega). After linearizing the cDNA vectors with appropriate restriction endonucleases, capped transcripts were produced using the mMessage mMachine T7 transcription kit (Ambion, Tex.). The capped transcripts were polyadenylated using yeast poly(A) polymerase (USB, OH) and were diluted and stored in diethylpyrocarbonate-treated water at −70° C. (Li, et al., 2003). […]

α3β3γ2 GABAA receptors = target: T2, α3β3γ2 GABAA receptors (Rattus norvegicus, UniProt P18508+P20236); test: Two-electrode voltage clamp in Xenopus oocytes, α3β3γ2; assay type: cell-based; conditions: FIG. 1, Xenopus oocytes
T2 construct: expressed in transfected cells; host or cells: Xenopus laevis oocytes injected with cRNA
Method: as §1, §2, §3

α1β3γ2 GABAA receptors = target: T3, α1β3γ2 GABAA receptors (Rattus norvegicus, UniProt P18508+P62813); test: Two-electrode voltage clamp in Xenopus oocytes, α1β3γ2; assay type: cell-based; conditions: FIG. 1, Xenopus oocytes
T3 construct: expressed in transfected cells; host or cells: Xenopus laevis oocytes injected with cRNA
Method: as §1, §2, §3

T2 sequence (P20236 29-493): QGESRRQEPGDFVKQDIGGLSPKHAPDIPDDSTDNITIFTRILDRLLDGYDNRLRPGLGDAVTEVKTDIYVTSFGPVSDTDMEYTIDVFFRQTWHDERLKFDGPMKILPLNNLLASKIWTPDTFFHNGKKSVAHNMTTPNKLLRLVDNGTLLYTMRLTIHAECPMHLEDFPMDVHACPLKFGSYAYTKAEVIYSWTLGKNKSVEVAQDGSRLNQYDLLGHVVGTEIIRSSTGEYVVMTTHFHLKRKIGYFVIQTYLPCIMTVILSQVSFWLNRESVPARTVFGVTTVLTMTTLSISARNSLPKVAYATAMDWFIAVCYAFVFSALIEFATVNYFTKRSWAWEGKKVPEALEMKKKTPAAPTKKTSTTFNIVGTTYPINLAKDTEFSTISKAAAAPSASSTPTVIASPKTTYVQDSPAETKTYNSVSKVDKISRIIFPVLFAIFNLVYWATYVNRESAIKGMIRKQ
T2 sequence (P63079 26-473 partner): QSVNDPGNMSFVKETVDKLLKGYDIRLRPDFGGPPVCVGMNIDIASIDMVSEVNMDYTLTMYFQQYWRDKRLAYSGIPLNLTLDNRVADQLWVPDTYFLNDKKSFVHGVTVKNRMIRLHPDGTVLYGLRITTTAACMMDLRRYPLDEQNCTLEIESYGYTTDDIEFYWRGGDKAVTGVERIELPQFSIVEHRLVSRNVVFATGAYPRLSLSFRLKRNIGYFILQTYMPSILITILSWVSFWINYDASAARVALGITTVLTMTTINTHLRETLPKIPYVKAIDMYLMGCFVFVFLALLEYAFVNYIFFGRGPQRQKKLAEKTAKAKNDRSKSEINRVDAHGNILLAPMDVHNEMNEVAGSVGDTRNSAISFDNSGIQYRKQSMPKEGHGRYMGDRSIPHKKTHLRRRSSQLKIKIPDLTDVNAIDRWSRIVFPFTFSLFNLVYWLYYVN
T2 sequence (P18508 39-466): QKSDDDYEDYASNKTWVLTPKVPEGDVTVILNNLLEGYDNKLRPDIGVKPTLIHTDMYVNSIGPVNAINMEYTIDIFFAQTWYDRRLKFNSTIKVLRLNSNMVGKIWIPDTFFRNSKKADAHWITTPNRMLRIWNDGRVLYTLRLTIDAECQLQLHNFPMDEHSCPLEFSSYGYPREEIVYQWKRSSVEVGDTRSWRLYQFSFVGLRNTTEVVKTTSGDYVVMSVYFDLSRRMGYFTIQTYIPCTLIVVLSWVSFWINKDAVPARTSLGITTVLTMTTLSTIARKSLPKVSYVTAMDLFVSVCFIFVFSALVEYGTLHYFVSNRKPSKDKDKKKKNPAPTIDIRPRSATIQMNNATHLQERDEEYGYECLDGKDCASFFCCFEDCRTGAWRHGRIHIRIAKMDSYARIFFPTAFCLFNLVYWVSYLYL
T3 sequence (P62813 28-455): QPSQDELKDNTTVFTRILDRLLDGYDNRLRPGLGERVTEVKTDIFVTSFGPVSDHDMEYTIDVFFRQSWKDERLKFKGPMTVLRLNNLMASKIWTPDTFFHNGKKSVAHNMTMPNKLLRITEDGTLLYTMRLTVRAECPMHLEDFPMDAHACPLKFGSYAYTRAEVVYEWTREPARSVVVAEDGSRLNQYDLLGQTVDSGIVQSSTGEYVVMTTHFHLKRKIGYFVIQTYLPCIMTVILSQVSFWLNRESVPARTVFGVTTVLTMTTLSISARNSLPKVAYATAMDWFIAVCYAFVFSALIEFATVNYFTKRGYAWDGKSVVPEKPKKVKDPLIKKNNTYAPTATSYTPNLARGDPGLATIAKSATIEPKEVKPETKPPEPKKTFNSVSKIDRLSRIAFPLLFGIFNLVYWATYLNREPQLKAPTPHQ
T3 sequence (P63079 26-473 partner): as the sequence (P63079 26-473 partner) above
T3 sequence (P18508 39-466): as the sequence (P18508 39-466) above
T1 sequence (P23576 29-451): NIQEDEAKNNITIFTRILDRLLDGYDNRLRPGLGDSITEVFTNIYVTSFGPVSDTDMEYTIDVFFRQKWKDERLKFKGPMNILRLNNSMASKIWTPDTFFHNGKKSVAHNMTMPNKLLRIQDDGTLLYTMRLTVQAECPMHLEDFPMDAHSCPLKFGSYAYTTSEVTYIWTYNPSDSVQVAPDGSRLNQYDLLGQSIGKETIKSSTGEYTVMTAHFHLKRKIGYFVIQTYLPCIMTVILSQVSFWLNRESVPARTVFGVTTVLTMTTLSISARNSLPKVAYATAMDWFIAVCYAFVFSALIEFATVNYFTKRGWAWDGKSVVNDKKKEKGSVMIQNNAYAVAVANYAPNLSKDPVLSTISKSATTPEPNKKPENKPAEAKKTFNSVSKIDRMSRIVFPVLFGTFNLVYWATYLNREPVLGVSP
T1 sequence (P63079 26-473 partner): as the sequence (P63079 26-473 partner) above
T1 sequence (P18508 39-466): as the sequence (P18508 39-466) above

C#Cc1ccc2c(c1)C(c1ccccc1)=NC(C)c1c(C(=O)OCC)ncn1-2 (stereo not shown) [SH-053-S—CH3, 8-Ethynyl-4-methyl-6-phenyl-4H-2,5,10b-triaza-benzo[e]azulene-3-carboxylic acid ethyl ester]
efficacy at α2β3γ2 subtypes (α2β3γ2 GABAA receptors): agonist
efficacy at α3β3γ2 subtypes (α3β3γ2 GABAA receptors): agonist
efficacy at α1β3γ2 subtypes (α1β3γ2 GABAA receptors): almost no efficacy
melting point: 197 to 199 °C
